From patent US4062948A, “Dihydromocimycin antibiotics” (Gist-Brocades N.V., priority 1970, dated 1977)
Structures can show the parent of a compound that is named as a salt.

Experiments:
Format in all cases: in vivo
[1] = tested on: microorganism causing Treponema dysentery; test: pigs infected with Treponema dysentery (Example VI)
Excerpt: Twenty pigs, 3 months old, were infected with the microorganism causing Treponema dysentery by administering to them feed mixed with a homogenous mixture of contents of the intestines and intestinal mucous membranes of two animals suffereing from the disease. The infected pigs were divided into four groups of five animals each and the animals were fed with the feed as a slurry diluted 1:1 with water for 1 week. The total amount of feed per animal was 1.2 kg each day and was given in two portions.
After 5 days, the first symptoms of the disease were observed from the thin faeces and confirmed by a microbiological investigation of the faeces and […] a week, the animals were treated as follows:
group 2: 100 ppm of tylosin were added to the feed;
group 3: 25ppm of dihydromocimycin were added to the feed; and
group 4: 50 ppm of dihydromocimycin were added to the feed.
The antibiotic-enriched feed was administered for a week. After that week, feed without any antibiotic was given again. Recovery from the infection was observed from the weights of the animals and from inspection samples of the faeces, macroscopically from their consistencies, and microscopically by means of a specific immuno-fluoroescence technique. During the test, one animal of each of groups 1, 3 and 4 died.
The results are shown in the following Table wherein the weights indicated are the averages at that time of the still living animals. The consistency of the faeces is indicated as follows:
+ means thin liquid; ± means thick liquid; - means normal. The results of the immuno-fluorescence technique are indicated quantitatively by indicating the number of Treponemas in the visual field: 5 means very crowded; 4 means many; 3 means about 10 Treponemas; 2 means 1 or 2 Treponemas, 1 means more visual fields necessary to find one Treponema, and - means negative.

[2] = growth promotion in pigs (Example III); settings: control = 100
Procedure: The sodium salt of mocimycin as obtained in Example I, was pre-mixed with wheat flour which mixture, added to the feed, was administered to pigs. The amount of the antibiotic present in the feed (based on the weight of the feed) is given hereinbelow in Table VII, in which the average relative weights of the pigs after 6 and 12 weeks, respectively are given.

[3] = growth promotion in slaughter chickens (Example II); settings: control = 100
Excerpt: Slaughter chickens are given mocimycin in the form of the sodium salt obtained in Example 1, in a mixture with component of the feed (wheat flour), the amount of antibiotic in the feed (based on the weight of the feed) being as specified in the following Table, which gives the weight of the chickens after 3, 5 and 7 weeks.

With `CC[C@H]1OC(=O)C[C@@H](O)[C@H](C)[C@@H](O[C@@H]2O[C@H](C)[C@@H](O[C@H]3C[C@@](C)(O)[C@@H](O)[C@H](C)O3)[C@H](N(C)C)[C@H]2O)[C@@H](CC=O)C[C@@H](C)C(=O)/C=C/C(C)=C/[C@@H]1CO[C@@H]1O[C@H](C)[C@@H](O)[C@@H](OC)[C@H]1OC` [tylosin, reference compound] the Weights ([1]; tylosin 100 ppm group, after 1 week (start of antibiotics)) was 22.2 kg, the Weights ([1]; tylosin 100 ppm group, just before infection (baseline)) was 24.4 kg and the Weights ([1]; tylosin 100 ppm, after 2 weeks) was 21.4 kg. For the same compound, the Weights ([1]; tylosin 100 ppm, after 3 weeks) was 23.2 kg.
For `CC=CC=CC1OC(O)(C(CC)C(=O)NCC=CC=C(C)C(OC)C(C)C2OC(C=CC=CC=C(C)C(=O)c3c(O)cc[nH]c3=O)C(O)C2O)C(O)C(O)C1(C)C` (stereo not drawn) [sodium salt of mocimycin], the feed conversion ([2]; 5 ppm in feed, 6 weeks) was 95, the “growth (average relative weight)” value ([2]; 5 ppm in feed, 6 weeks) was 107 and the feed conversion ([2]; 5 ppm in feed, 12 weeks) was 98. For the same compound, the “growth (average relative weight)” value ([2]; 5 ppm in feed, 12 weeks) was 104.5, the feed conversion ([2]; 10 ppm in feed, 6 weeks) was 92.5 and the “growth (average relative weight)” value ([2]; 10 ppm in feed, 6 weeks) was 108.5. For the same compound, the feed conversion ([2]; 10 ppm in feed, 12 weeks) was 99, the “growth (average relative weight)” value ([2]; 10 ppm in feed, 12 weeks) was 104 and the “weight of chickens relative to control (control = 100)” value ([3]; 5 ppm in feed, 3 weeks) was 104%. For the same compound, the “weight of chickens relative to control (control = 100)” value ([3]; 5 ppm in feed, 5 weeks) was 103%, the “weight of chickens relative to control (control = 100)” value ([3]; 5 ppm in feed, 7 weeks) was 103% and the “weight of chickens relative to control (control = 100)” value ([3]; 10 ppm in feed, 3 weeks) was 107%. The “weight of chickens relative to control (control = 100)” value ([3]; 10 ppm in feed, 5 weeks) was 105%, the “weight of chickens relative to control (control = 100)” value ([3]; 10 ppm in feed, 7 weeks) was 104% and the “weight of chickens relative to control (control = 100)” value ([3]; 20 ppm in feed, 3 weeks) was 109%. The “weight of chickens relative to control (control = 100)” value ([3]; 20 ppm in feed, 5 weeks) was 107% and the “weight of chickens relative to control (control = 100)” value ([3]; 20 ppm in feed, 7 weeks) was 105%.
